Data on 21 compounds can be found in US6596734B1, “Tetrahydroisoquinoline compounds for use as β3-adrenoreceptor agonists” (Molecular Design International, Inc., priority 2001, dated 2003).

Each structure is given as a SMILES string. pEC50: −log10 of the molar value. Where a name gives a salt, the structure may show the parent alone.

For one data set, the target named is T1, human β3-adrenoreceptor (Homo sapiens, UniProt P13945).
T1 construct: expressed in transfected cells; host or cells: CHO cells
The data set is described as follows: cAMP radioimmunoassay in CHO cells expressing human β3-adrenoreceptor. Conditions: for pEC50: concentration giving 50% of the drug's maximum cAMP response, na = not active at highest concentration used, read-out: h-β3 cAMP EC50; for Emax: maximal response relative to standard reference agonist (isoproterenol = 100%), na = not active, read-out: h-β3 cAMP Max %. The format is cell-based. The protocol: (§1) Chinese Hamster Ovary (CHO) cells expressing either human β1-, β2-, or β3-adrenoreceptor subtypes were used. Varying concentrations of each compound were added to the incubated cells and the cyclic AMP (cAMP) generated within the cells was extracted, and determined using a radioimmunoassay. Effective concentration-50 (EC-50) values were measured as the concentration (in nanomolar) of each drug that gave 50% of its maximum cAMP response. The maximal response (Max %) of each tested drug is expressed as a ratio of the drug response to that of a standard reference agonist (e.g., isoproterenol (Max %=100%)). If a compound has no activity for increasing cAMP at the highest concentration used, it is designated as “not active” or “na” in Table I below, which summarizes the testing results. See Konkar et al., Journal of Pharmacology and Experimental Therapeutics 291:875-883 (1999).

The next data set has as its target T2, human β1-adrenoreceptor (Homo sapiens, UniProt P08588).
T2 construct: expressed in transfected cells; host or cells: CHO cells
The data set is described as follows: cAMP radioimmunoassay in CHO cells expressing human β1-adrenoreceptor. The format is cell-based. Conditions: maximal response relative to standard reference agonist (isoproterenol = 100%), na = not active, read-out: h-β1 cAMP Max %. The protocol: as §1

In the next data set the target is T3, human β2-adrenoreceptor (Homo sapiens, UniProt P07550).
T3 construct: expressed in transfected cells; host or cells: CHO cells
Briefly: cAMP radioimmunoassay in CHO cells expressing human β2-adrenoreceptor. In kind it is cell-based. Conditions: maximal response relative to standard reference agonist (isoproterenol = 100%), na = not active, read-out: h-β2 cAMP Max %. The protocol:
as §1

T1 sequence (P13945 whole entry): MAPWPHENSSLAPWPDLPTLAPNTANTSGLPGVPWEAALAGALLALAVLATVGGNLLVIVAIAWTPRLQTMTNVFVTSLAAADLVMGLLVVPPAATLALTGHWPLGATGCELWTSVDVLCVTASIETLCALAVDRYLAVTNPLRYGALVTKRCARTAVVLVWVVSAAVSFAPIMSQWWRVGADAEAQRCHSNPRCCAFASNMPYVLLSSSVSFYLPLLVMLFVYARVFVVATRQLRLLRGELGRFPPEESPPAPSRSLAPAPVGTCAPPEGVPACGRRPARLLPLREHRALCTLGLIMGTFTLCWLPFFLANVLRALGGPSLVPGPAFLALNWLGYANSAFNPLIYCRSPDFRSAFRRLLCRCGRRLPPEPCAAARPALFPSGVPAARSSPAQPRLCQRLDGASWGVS
T2 sequence (P08588 whole entry): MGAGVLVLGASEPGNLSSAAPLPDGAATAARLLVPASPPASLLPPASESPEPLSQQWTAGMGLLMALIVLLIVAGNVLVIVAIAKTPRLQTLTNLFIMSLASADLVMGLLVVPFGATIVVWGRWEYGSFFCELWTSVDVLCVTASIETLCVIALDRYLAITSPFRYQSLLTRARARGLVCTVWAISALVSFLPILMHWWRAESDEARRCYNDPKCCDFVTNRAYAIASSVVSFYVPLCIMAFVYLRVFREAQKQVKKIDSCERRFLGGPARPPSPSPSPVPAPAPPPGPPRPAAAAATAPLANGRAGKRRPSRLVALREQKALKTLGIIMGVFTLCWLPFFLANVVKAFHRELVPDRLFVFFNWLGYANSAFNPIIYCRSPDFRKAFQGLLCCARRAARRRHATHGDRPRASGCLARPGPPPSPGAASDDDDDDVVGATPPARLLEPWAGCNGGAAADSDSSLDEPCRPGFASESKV
T3 sequence (P07550 whole entry): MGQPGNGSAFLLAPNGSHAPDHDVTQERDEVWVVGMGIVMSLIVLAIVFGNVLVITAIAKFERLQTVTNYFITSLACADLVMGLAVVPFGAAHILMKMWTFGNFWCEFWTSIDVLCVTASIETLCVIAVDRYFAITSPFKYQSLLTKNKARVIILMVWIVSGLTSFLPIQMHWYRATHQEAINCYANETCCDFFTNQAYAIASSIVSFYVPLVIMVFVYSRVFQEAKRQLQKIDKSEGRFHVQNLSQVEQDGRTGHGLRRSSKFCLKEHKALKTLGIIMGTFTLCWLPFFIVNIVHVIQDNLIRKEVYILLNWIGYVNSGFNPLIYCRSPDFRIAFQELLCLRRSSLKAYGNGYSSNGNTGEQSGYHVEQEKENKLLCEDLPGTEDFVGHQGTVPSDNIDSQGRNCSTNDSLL

Turning to `CCS(=O)(=O)Nc1cc2c(cc1O)CCNC2Cc1cc(Br)c(OC)c(Br)c1` (centres unmarked), at human β3-adrenoreceptor, the negative logarithm of the EC50 (pEC50) was 8.82 and the Emax is 102%. The Emax at human β1-adrenoreceptor turned out to be 8.4%.

In the case of `COc1c(I)cc(CC2NCCc3cc(O)c(NS(=O)(=O)c4ccc(C)cc4)cc32)cc1I` (centres unmarked), the pEC50 at human β3-adrenoreceptor was 8.54. For the same compound, the Emax was determined as 91% on human β3-adrenoreceptor, 8% at human β2-adrenoreceptor and 5% at human β1-adrenoreceptor.

For `COc1ccc(CC2NCCc3cc(O)c(NS(C)(=O)=O)cc32)cc1OC` (centres unmarked), the pEC50 at human β3-adrenoreceptor was 6.93. In addition, the Emax on human β3-adrenoreceptor amounted to 76.9%; at human β2-adrenoreceptor, 15.4%; on human β1-adrenoreceptor, 10.2%.

Consider `CS(=O)(=O)Nc1cc2c(cc1O)CCNC2Cc1ccc(Cl)c(Cl)c1` (centres unmarked), for which, on human β3-adrenoreceptor, the pEC50 is 8.00 and the Emax is 92%.

Turning to `COc1c(I)cc(CC2NCCc3cc(O)c(NS(C)(=O)=O)cc32)cc1I` (centres unmarked), the pEC50 at human β3-adrenoreceptor was 8.52. Further, the Emax was determined as 98% at human β3-adrenoreceptor, 5% on human β2-adrenoreceptor and 5% on human β1-adrenoreceptor.

Take `CS(=O)(=O)Nc1cc2c(cc1O)CCNC2Cc1ccc(F)c(F)c1` (centres unmarked): on human β3-adrenoreceptor, the negative logarithm of the EC50 (pEC50) was 7.61 and the Emax is 78.3%.

`COc1c(Br)cc(CC2NCCc3cc(O)c(N(S(=O)(=O)c4ccc(F)cc4)S(=O)(=O)c4ccc(F)cc4)cc32)cc1Br` (centres unmarked): the Emax stood at 8.7% on human β3-adrenoreceptor, 5.8% on human β2-adrenoreceptor and 12.1% at human β1-adrenoreceptor.

`COc1ccc(CC2NCCc3cc(O)c(NS(C)(=O)=O)cc32)cc1` (centres unmarked): the Emax on human β3-adrenoreceptor turned out to be 24%.

In the case of `CS(=O)(=O)Nc1cc2c(cc1N)CCNC2Cc1ccc(Cl)c(Cl)c1` (centres unmarked), the values for the Emax on human β3-adrenoreceptor, at human β2-adrenoreceptor and at human β1-adrenoreceptor were 2.24%, 10.8% and 12.6%, respectively.

Consider `CCOC(=O)Nc1cc2c(cc1NS(C)(=O)=O)CCNC2Cc1cc(Br)c(OC)c(Br)c1` (centres unmarked), for which the Emax on human β3-adrenoreceptor amounted to 8.7%; on human β2-adrenoreceptor, 17.2%; at human β1-adrenoreceptor, 11%.

On to `COc1c(Br)cc(CC2NCCc3cc(O)c(NS(=O)(=O)c4ccc(OC(F)(F)F)cc4)cc32)cc1Br` (centres unmarked), for which, on human β3-adrenoreceptor, the negative logarithm of the EC50 (pEC50) is 7.10 and the Emax is 65.7%.

For the compound `CS(=O)(=O)Nc1cc2c(cc1O)CCNC2Cc1cc(F)cc(F)c1` (centres unmarked), on human β3-adrenoreceptor, the negative-log EC50 (pEC50) is 7.41 and the Emax was determined as 66.6%.

With `COc1ccc(S(=O)(=O)Nc2cc3c(cc2O)CCNC3Cc2cc(Br)c(OC)c(Br)c2)cc1` (centres unmarked) (as salt: hydrochloride) [Example 4, N-[1-(3,5-dibromo-4-methoxy-benzyl)-6-hydroxy-1,2,3,4-tetrahydro-isoquinolin-7-yl]-4-methoxy-benzenesulfonamide hydrochloride], the melting point was 226 to 228 °C (dec.).

Consider `COc1c(Br)cc(CC2NCCc3cc(O)c(NS(=O)(=O)c4ccc(F)cc4)cc32)cc1Br` (centres unmarked), for which the pEC50 on human β3-adrenoreceptor was 8.28. Besides, the Emax at human β3-adrenoreceptor came out at 90.4%; on human β2-adrenoreceptor it was 13.5%; at human β1-adrenoreceptor it was 8.6%.

On to `COc1c(Br)cc(CC2c3cc(NS(C)(=O)=O)c(O)cc3CCN2C)cc1Br` (centres unmarked), for which the values for the Emax on human β3-adrenoreceptor, on human β2-adrenoreceptor and on human β1-adrenoreceptor were 39.3%, 24.1% and 16.2%, respectively.

`COc1c(Br)cc(CC2NCCc3cc(O)c(NS(=O)(=O)c4ccc(C(F)(F)F)cc4)cc32)cc1Br` (centres unmarked): on human β3-adrenoreceptor, the pEC50 was 7.53. Moreover, the Emax at human β3-adrenoreceptor came out at 83.3%; at human β2-adrenoreceptor, 16.6%; on human β1-adrenoreceptor, 13%.

`COc1c(Br)cc(CC2NCCc3cc(O)c(NS(=O)(=O)c4ccc(C)cc4)cc32)cc1Br` (centres unmarked): the negative logarithm of the EC50 (pEC50) on human β3-adrenoreceptor was 8.07. Besides, the figures for the Emax at human β3-adrenoreceptor, on human β2-adrenoreceptor and on human β1-adrenoreceptor were 97.6%, 8% and 18.1%, respectively.

In the case of `COc1c(Br)cc(CC2NCCc3cc(O)c(NS(=O)(=O)Cc4ccccc4)cc32)cc1Br` (centres unmarked), at human β3-adrenoreceptor, the pEC50 was 7.68 and the Emax was 92.2%.

For `COc1c(Br)cc(CC2NCCc3cc(O)c(NS(=O)(=O)c4ccccc4)cc32)cc1Br` (centres unmarked), the negative logarithm of the EC50 (pEC50) on human β3-adrenoreceptor is 7.45. The results for the Emax at human β3-adrenoreceptor, at human β2-adrenoreceptor and on human β1-adrenoreceptor were 88.2%, 21.4% and 13.1%, respectively.

Turning to `COc1c(Br)cc(CC2NCCc3cc(O)c(NS(=O)(=O)/C=C/c4ccccc4)cc32)cc1Br` (centres unmarked), at human β3-adrenoreceptor, the pEC50 is 7.64 and the Emax is 96.6%.

In the case of `COc1ccc(S(=O)(=O)Nc2cc3c(cc2O)CCNC3Cc2cc(Br)c(OC)c(Br)c2)cc1` (centres unmarked), on human β3-adrenoreceptor, the pEC50 is 8.09 and the Emax stood at 88.3%.

Broadly, the pEC50 is the EC50 on a negative log10 scale, so that one unit is a factor of ten. One may read the melting point as the temperature, or range, at which the solid turns liquid.
